Tests used:
Type in all cases: cell-based, human
HL-60 cells = test: Effect of 10 mM citric acid on HL-60 energy utilization; settings: for Effect of 10 mM Citric Acid on HL-60 Energy Utilization: negative control without energy sources and without citric acid
[1] = tested on: DMSO-differentiated HL-60 cells; test: Energy use by DMSO-differentiated HL-60 cells; settings: for activity at 30 µM / activity at 100 µM / activity at 330 µM / activity at 1000 µM / activity at 3300 µM / activity at 10000 µM / activity at 15000 µM / activity at 20000 µM: Homo sapiens, HL-60, 24 h, read-out: Energy Use by DMSO-Differentiated HL-60 Cells; for activity at 30 µM: Conc. 0.03 mM; for activity at 100 µM: Conc. 0.10 mM; for activity at 330 µM: Conc. 0.33 mM; for activity at 1000 µM: Conc. 1.00 mM; for activity at 3300 µM: Conc. 3.3 mM; for activity at 10000 µM: Conc. 10 mM; for activity at 15000 µM: Conc. 15 mM; for activity at 20000 µM: Conc. 20 mM
How it was run: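 HL-60 cells, […] differentiated with 1.25% DMSO for 3 days, were plated at 5×10^4/well in DME-R with test energy sources at 0.033–20 mM final for 24 h at 37 °C. Viability was measured by MTS/PMS at 490 nm (ref 650 nm) 24 h after reagent addition. Values were background-subtracted using cell-free plates and expressed as % of the no-energy-source control.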

HepG2 cells = HepG2 cells on flat bottom plastic wells, energy sources at a range of concentrations; settings: for activity at 30 µM / activity at 100 µM / activity at 330 µM / activity at 1000 µM / activity at 3300 µM / activity at 10000 µM / activity at 15000 µM / activity at 20000 µM: Homo sapiens, HepG2, 72 h, read-out: HepG2 Cells Responses After 72 hours in Culture and a 4 hour Color Development Period; for activity at 30 µM: Conc. 0.03 mM; for activity at 100 µM: Conc. 0.10 mM; for activity at 330 µM: Conc. 0.33 mM; for activity at 1000 µM: Conc. 1.00 mM; for activity at 3300 µM: Conc. 3.3 mM; for activity at 10000 µM: Conc. 10 mM; for activity at 15000 µM: Conc. 15 mM; for activity at 20000 µM: Conc. 20 mM
How it was run: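 HepG2 cells plated overnight at 4×10^4 cells/cm^2 in glucose-, glutamine- and pyruvate-free DME with 10% HI FBS, then exposed to each energy source at 0.033 to 20 mM final for 48 to 72 h at 37° C, 5% CO2. MTS/PMS colour read at 490 nm (reference 650 nm) after 4-24 h; cell-free plate OD subtracted, data normalised to % negative control (water, no energy source).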

[2] = energy source 0.03 mM with 10 mM citric acid
[3] = energy source 0.10 mM with 10 mM citric acid
[4] = energy source 0.33 mM with 10 mM citric acid
[5] = energy source 1.00 mM with 10 mM citric acid
[6] = energy source 3.3 mM with 10 mM citric acid
[7] = energy source 10 mM with 10 mM citric acid
[8] = energy source 15 mM with 10 mM citric acid
[9] = energy source 20 mM with 10 mM citric acid

SMILES	Effect of 10 mM Citric Acid on HL-60 Energy Utilization (HL-60 cells; [2])	Effect of 10 mM Citric Acid on HL-60 Energy Utilization (HL-60 cells; [3])	Effect of 10 mM Citric Acid on HL-60 Energy Utilization (HL-60 cells; [4])	Effect of 10 mM Citric Acid on HL-60 Energy Utilization (HL-60 cells; [5])	Effect of 10 mM Citric Acid on HL-60 Energy Utilization (HL-60 cells; [6])	Effect of 10 mM Citric Acid on HL-60 Energy Utilization (HL-60 cells; [7])	Effect of 10 mM Citric Acid on HL-60 Energy Utilization (HL-60 cells; [8])	Effect of 10 mM Citric Acid on HL-60 Energy Utilization (HL-60 cells; [9])	activity at 30 µM [1]	activity at 100 µM [1]	activity at 330 µM [1]	activity at 1000 µM [1]	activity at 3300 µM [1]	activity at 10000 µM [1]	activity at 15000 µM [1]	activity at 20000 µM [1]	activity at 30 µM (HepG2 cells)	activity at 100 µM (HepG2 cells)	activity at 330 µM (HepG2 cells)	activity at 1000 µM (HepG2 cells)	further results
NC(=O)CC[C@H](N)C(=O)O [L-glutamine]	15.0 % of negative control	57.8 % of negative control	57.1 % of negative control	108.0 % of negative control	135.0 % of negative control	125.3 % of negative control	107.3 % of negative control	86.7 % of negative control	110%	149%	154%	156%	172%	157%	121%	109%	103%	114%	205%	218%	cell activity in the presence of citric acid, in words (HL-60 cells; 10 mM citric acid): able to restore cell activity to a level equal or greater than the negative control; response in words (HepG2 cells; 0.033 to 20 mM, 72 hour culture): dose dependent response in the 72 hour culture up to 3.3 mM; activity at 3300 µM (HepG2 cells): 260%; activity at 10000 µM (HepG2 cells): 224%; activity at 15000 µM (HepG2 cells): 146%; activity at 20000 µM (HepG2 cells): 111%
CC(C)[C@H](N)C(=O)O [L-valine]	9.3 % of negative control	13.4 % of negative control	12.4 % of negative control	12.7 % of negative control	20.8 % of negative control	32.2 % of negative control	42.3 % of negative control	64.5 % of negative control	81.1%	89.4%	85.2%	86.7%	81.2%	89.3%	81.4%	88.6%	119%	149%	170%	125%	activity at 3300 µM (HepG2 cells): 176%; activity at 10000 µM (HepG2 cells): 132%; activity at 15000 µM (HepG2 cells): 108%; activity at 20000 µM (HepG2 cells): 87.6%
Cc1cn([C@H]2C[C@H](O)[C@@H](CO)O2)c(=O)[nH]c1=O [Thymidine]	5.2 % of negative control	18.9 % of negative control	12.4 % of negative control	22.1 % of negative control	27.9 % of negative control	31.0 % of negative control	20.9 % of negative control	64.8 % of negative control	96%	112%	143%	165%	173%	160%	160%	103%	115%	158%	180%	150%	energy source use in words ([1]; DMSO-differentiated HL-60 cells): able to utilize thymidine at concentrations of 0.1-15 mM; activity at 3300 µM (HepG2 cells): 135%; activity at 10000 µM (HepG2 cells): 114%; activity at 15000 µM (HepG2 cells): 101%; activity at 20000 µM (HepG2 cells): 134%

— patent US9274101B2 (BIOLOG, Inc., priority 2001, dated 2016)
